Results published in US20220110917A1 (priority 2018, published 2022).

Tests used:
[1] = in vivo; cited from earlier work
[2] = in vivo, po
[3] = human, in vivo, po
[4] = oral administration in suspension; cited from earlier work

CC(=O)[C@H]1CC[C@H]2[C@@H]3CC[C@H]4C[C@H](O)CC[C@]4(C)[C@H]3CC[C@]12C [allopregnanolone, 3α, 5α-tetrahydroprogesterone]
half-life [1]: about 35 minutes

CCN(CC)CCN1C(=O)CN=C(c2ccccc2F)c2cc(Cl)ccc21 [Flurazepam]
residual effect on Choice Reaction Time [2]: showed significant effect | residual effect on Critical Flicker Fusion [2]: showed significant effect

Oc1noc2c1CCNC2 [gaboxadol, 4,5,6,7-tetrahydroisoxazolo [5,4-c] pyridine-3-ol]
residual effect on Choice Reaction Time [2]: did not show residual effect | residual effect on Critical Flicker Fusion [2]: did not show residual effect | residual effects on Body Sway [2]: did not show any signs of residual effects | residual effects on Digit symbol substitution test (DSST) [2]: did not show any signs of residual effects | residual effects on Leeds Sleep Evaluation Questionnaire [2]: did not show any signs of residual effects | residual effects on Memory tests [2]: did not show any signs of residual effects | residual effects on Multiple Sleep Latency Test (MSLT) [2]: did not show any signs of residual effects | residual effects on Tracking [2]: did not show any signs of residual effects | AUC0-∞ Slope (90% CI), dose proportionality [3]: 0.98 (0.95, 1.01) | Cmax Slope (90% CI), dose proportionality [3]: 0.95 (0.88, 1.02)

CC(=O)[C@H]1CC[C@H]2[C@@H]3CC[C@H]4C[C@](C)(O)CC[C@]4(C)[C@H]3CC[C@]12C [ganaxolone]
Tmax [4]: 1.2 to 2.5 h | plasma half-life [4]: approximately 20 h
